From patent publication US11896678B2, “Compositions and methods for treatment of peroxisome proliferator-activated receptor gamma (PPARG) activated cancer” (THE BROAD INSTITUTE, INC., priority 2017, dated 2024)

Tests used:
UM-UC-9 cells [1] = assay: Direct cell counting dose-response proliferation assay; format: cell-based, human
Procedure: To determine whether PPARG modulators affect the proliferation and/or viability of PPARG-activated bladder cancer cell lines, a direct cell counting-based assay was performed. This assay likely avoids potential artifacts associated with the use of an ATP content-based assay, given that PPAR modulators are known to regulate cellular metabolic activity. […] These IC50 values align well with the calculated IC50s from both the cell-based reporter gene assay (FIG. 8A) and the biochemical corepressor assay (FIG. 8D).
(§1) Proliferation Assays: To enable cell-counting experiments, cell lines were transduced with a lentiviral vector encoding nuclear-targeted GFP, TagGFP2-H2B (Evrogen), and stable pools generated following selection for puromycin resistance. Cell lines were maintained for at least 7 days following selection prior to expansion and seeding into 96- or 384-well plates for further analysis. For kinetic proliferation assays, 96-well plates (n 1% 4 per condition) were imaged and counted every two hours using IncuCyte Zoom (Essen BioScience). Media and compounds were replaced approximately every 3-4 days. For endpoint assays to measure dose-response, cells were plated in 384-well plates, dosed with compound, and upon reaching approximately 70% to 90% confluence in control wells, cells were either counted using fluorescence imaging (Incu-Cyte Zoom) or incubated with CyQuant (Thermo Fisher) at the indicated time and plates were read with a fluorescent plate reader.

[2] = biological target: T1, PPARG ligand-binding domain - NCoR/NCOR1 corepressor peptide (Homo sapiens, UniProt P37231); assay: TR-FRET corepressor assay, NCoR/NCOR1 peptide; format: biochemical; details: data not shown
T1 construct: purchased ThermoFisher Scientific
T1 sequence (P37231 238-503 limits assumed): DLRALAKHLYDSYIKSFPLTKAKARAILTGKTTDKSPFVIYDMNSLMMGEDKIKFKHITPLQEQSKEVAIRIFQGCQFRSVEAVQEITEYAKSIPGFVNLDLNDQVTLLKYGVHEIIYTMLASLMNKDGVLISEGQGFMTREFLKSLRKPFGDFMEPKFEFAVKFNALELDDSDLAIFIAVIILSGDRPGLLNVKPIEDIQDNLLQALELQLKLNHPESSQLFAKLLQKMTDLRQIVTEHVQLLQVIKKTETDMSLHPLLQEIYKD
Procedure: To evaluate inverse-agonism, a TR-FRET PPARG co-repressor assay (ThermoFisher) that measures recruitment of a fluorescent NCOR1 or NCOR2 corepressor peptide to the PPARG ligand-binding domain was used (ThermoFisher).
In addition to the PPARG-NCOR2 interaction assay described above, interactions between PPARG and a peptide from the corepressor NCOR1 were measured.

UM-UC-9 cells [3] = assay: Kinetic proliferation assay (IncuCyte), percent of DMSO control; format: cell-based, human; details: 100 nmol/L; DMSO control at 50% confluency
Source text: This assay was expanded to include an additional 8 representative bladder cancer cell lines, including cell lines with PPARG amplification, RXRA p.S427F mutation, activated gene signature, and control cell lines with low level expression of PPARG and target genes. […] Representative data for the UM-UC-9 cell line are shown in FIG. 6B, and is tabulated for the tested bladder cancer cell lines in Table 1. […] Similar results were obtained with these cell lines in parallel studies using clonogenic assays to quantify colony-forming ability (FIG. 10).
as §1, with “Cell lines were maintained for at least 7 days following selection prior to expansion and seeding into 96- or 384-well plates for further analysis.” left out, “Media and compounds were replaced approximately every 3-4 days.” left out

PPARG = biological target: T2, PPARG (Homo sapiens, UniProt P37231); assay: RT112/84 FABP4-NLucP reporter gene assay, antagonist mode with rosiglitazone; format: cell-based; details: in the presence of rosiglitazone
T2 construct: endogenous in cells; host or cells: RT112/84 bladder cancer cells (FABP4-NLucP knock-in clone)
T2 sequence (P37231 1-477 isoform P37231-2): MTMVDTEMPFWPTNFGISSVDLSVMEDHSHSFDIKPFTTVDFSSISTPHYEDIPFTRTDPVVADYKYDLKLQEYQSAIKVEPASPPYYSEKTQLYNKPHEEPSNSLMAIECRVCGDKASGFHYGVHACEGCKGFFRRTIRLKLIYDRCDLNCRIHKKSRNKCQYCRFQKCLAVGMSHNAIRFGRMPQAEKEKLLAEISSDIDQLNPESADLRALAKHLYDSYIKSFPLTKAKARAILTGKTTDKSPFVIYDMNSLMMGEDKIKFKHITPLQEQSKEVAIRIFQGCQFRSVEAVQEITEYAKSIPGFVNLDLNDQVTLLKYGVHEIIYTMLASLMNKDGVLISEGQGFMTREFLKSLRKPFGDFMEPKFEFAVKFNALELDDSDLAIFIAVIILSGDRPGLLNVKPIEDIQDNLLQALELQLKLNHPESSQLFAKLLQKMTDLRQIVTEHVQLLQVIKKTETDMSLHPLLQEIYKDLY
Procedure: RT112-FABP4-NLucP Reporter Gene Assay: Reporter cell line was generated by engineering NanoLuc gene into the 3′ UTR of FABP4 in RT112/84 cells using CRISPR/Cas9 guided genome engineering. Single cell clones were generated and the clone with the widest dynamic range selected for use. Assays were performed by seeding 384-well plates with ˜10,000 cells per well in MEMalpha containing 10% FBS and dosing compounds at indicated concentration using HP D300 digital dispenser (HP/Tecan). 18-24 hours after dosing with compound, cells were assayed using NanoGlo Luciferase Assay Reagent (Promega Madison, WI) and plates were read using EnVision Multilabel Reader (PerkinElmer Waltham, MA).

[4] = tested on: PPARG-activated bladder cancer cell lines; assay: Proliferation assays in PPARG-activated bladder cancer cell lines; format: cell-based, human; details: 100 nM-500 nM
Procedure: A panel of bladder cancer cell lines with PPARG modulators in colony formation assays was then tested (FIG. 10), kinetic proliferation assays (IncuCyte Zoom; Essen Bioscience) using cell lines treated with a single concentration of compound (100 nM-500 nM), and end-point dose-response assays (CellTiter Glo or CyQuant).
This assay was expanded to include an additional 8 representative bladder cancer cell lines, including cell lines with PPARG amplification, RXRA p.S427F mutation, activated gene signature, and control cell lines with low level expression of PPARG and target genes. […] Representative data for the UM-UC-9 cell line are shown in FIG. 6B, and is tabulated for the tested bladder cancer cell lines in Table 1. […] This significant (P<0.01) preferential sensitivity to PPARG inverse-agonists, but not antagonists, is maintained across all of the PPARG-activated cell lines in the panel, including the RXRA p.S427F cell line, HT-1197 (41), the PPARG-amplified cell lines, 5637 and UM-UC-9, and the PPARG activation gene signature cell lines Cal29, UM-UC-1, and RT112/84 (FIG. 12). […] Similar results were obtained with these cell lines in parallel studies using clonogenic assays to quantify colony-forming ability (FIG. 10).
as §1

[5] = tested on: PPARG-activated pancreatic and colorectal cancer cell lines; assay: Kinetic proliferation assay in pancreatic and colorectal cancer cell lines; format: cell-based; details: 500 nM
Source text: To enable cell-counting, cell lines were transduced with a lentiviral vector encoding nuclear-targeted GFP (TagGFP2-H2B), and stable pools generated following selection for puromycin-resistance. Cell lines were maintained for at least 7 days following selection prior to expansion and seeding into 96-well plates for further analysis. For kinetic proliferation assays, 96-well plates were imaged in phase-contrast and green fluorescence mode every two hours using IncuCyte Zoom (Essen BioScience, Ann Arbor MI). Using IncuCyte software, the number of fluorescent nuclei were counted to monitor quantitative changes in cell number over time. Media and compounds were replaced approximately every 3-4 days.
DMSO treatment was also included as a vehicle control.

[6] = biological target: T3, PPARG ligand-binding domain - TRAP220/MED1 coactivator peptide (Homo sapiens, UniProt P37231); assay: TR-FRET coactivator assay, TRAP220/MED1 peptide; format: biochemical
T3 construct: purchased ThermoFisher Scientific
T3 sequence (P37231 238-503 limits assumed): T1 sequence (P37231 238-503 limits assumed)

induced signal [2]: 2.5 fold
effect in coactivator assay [6]: minimal effect
SMILES: O=C(Nc1ccccc1)c1cc([N+](=O)[O-])ccc1Cl [GW9662]
effect on cell proliferation compared with DMSO control (UM-UC-9 cells [1]): no significant effects
effect on proliferation relative to control (UM-UC-9 cells [3]): no effect
effect on agonist-induced signal (PPARG): decreased the agonist-induced signal back to the original baseline
sensitivity of cell lines [4]: not sensitive
sensitivity of cell lines [5]: not sensitive
